Source: PubChem BioAssay AID1117337 (Cheminformatics & Chemogenomics Research Group (CCRG), …, 2015)
“And” between values parts separate entries of the source, which are not always exact repeats. Identical values can stand only once. The source made the active and inactive calls. The rule behind the calls is not given here. *1 amine or outer side, *2 acyl side, *3 side chain or, on linkers, in order; H or OH if unused. Where a SMILES comes first, the peptide text is derived from it. Bridges are numbered along the chain shown (N, C = ends). Roman numbers before positions name the chains, in order. [ ]: non-standard residue; d: D form. Actinocin(9to1) = Cc1c2oc3c(C)ccc(C(=O)[*:1])c3nc-2c(C(=O)[*:2])c(N)c1=O; NMeV = CN[C@H](C(=O)O)C(C)C; Sar = CNCC(=O)O

Each molecule was assayed on ADSC/ECFC co-culture, VEGF-stimulated, CD31 tube area (assay: ADSC/ECFC co-culture angiogenesis inhibition – imaging, VEGF stimulation, CD31 staining, tube area, IC50, dose response (AID 1117337)).

SMILES | IC50
Cn1ccc2cc3c(cc21)CCN3C(=O)Nc1cccnc1 | > 10 µM (inactive)
Nc1ncn([C@@H]2O[C@H](CO)[C@@H](O)[C@H]2O)c(=O)n1 | > 10 µM (inactive)
COC1=C(OC)C(=O)C(CCCCCCCCCCO)=C(C)C1=O | > 10 µM (inactive)
[O-][n+]1ccccc1SSc1cccc[n+]1[O-] | 0.719 µM
O=C(CCCN1CCC(O)(c2cccc(C(F)(F)F)c2)CC1)c1ccc(F)cc1 | > 10 µM (inactive)
CCCCCCCCCCCCCCCCCCCCCC(=O)Nc1ccn([C@@H]2O[C@H](CO)[C@@H](O)[C@H]2O)c(=O)n1 | > 10 µM (inactive)
NC1=NCC2c3ccccc3Cc3ccccc3N12 (stereo unspecified) | > 10 µM (inactive)
O=C1c2c(O)cccc2Cc2cccc(O)c21 | 0.604 µM
O=C(O)C1(C(=O)O)CCC1.[NH2-].[NH2-].[Pt+2] | > 10 µM (inactive)
Nc1nc(F)nc2c1ncn2[C@@H]1O[C@H](CO)[C@@H](O)[C@@H]1O | 8.45 µM (inactive)
CCc1cccc(N(C)C(N)=Nc2cccc3ccccc23)c1 | > 10 µM (inactive)
O=C(Nc1ccc(S(=O)(=O)N2CCOCC2)cc1)c1cc(Cl)ccc1NS(=O)(=O)c1ccc(Cl)s1 | > 10 µM (inactive)
CCC(C(=O)OCCOCCN(CC)CC)c1ccccc1 (stereo unspecified) | > 10 µM (inactive)
C[C@H]1O[C@@H](O[C@H]2CC[C@@]3(C)[C@H](CC[C@@H]4[C@@H]3C[C@@H](O)[C@]3(C)[C@@H](C5=CC(=O)OC5)CC[C@]43O)C2)C[C@H](O)[C@@H]1O[C@H]1C[C@H](O)[C@H](O[C@H]2C[C@H](O)[C@H](O[C@@H]3O[C@H](CO)[C@@H](O)[C@H](O)[C@H]3O)[C@@H](C)O2)[C@@H](C)O1 | 0.0614 µM
CCCCN1CCCC1C(=O)Nc1c(C)cc(C)cc1C (stereo unspecified) | > 10 µM (inactive)
Cc1ccc(Nc2nccc(N(C)c3ccc4c(C)n(C)nc4c3)n2)cc1S(N)(=O)=O | 0.0465 µM
NC(=O)n1c(O)c(C(=O)c2cccs2)c2cc(Cl)ccc21 | > 10 µM (inactive)
O=c1c(-c2ccccc2)c1-c1ccccc1 | 3.84 µM
CC(=O)N(O)CCCCCNC(=O)CCC(=O)N(O)CCCCCNC(=O)CCC(=O)N(O)CCCCCN | 4.53 µM
COc1cc(NCc2ccc3nc(N)nc(N)c3c2C)cc(OC)c1OC | 4.42 µM
CCOC(=O)c1ccccc1C(=O)OCC | > 10 µM (inactive)
Cc1ccc2nc(N)[nH]c(=O)c2c1Sc1ccncc1 | 7.37 µM (inactive)
Cc1c2oc3c(C)ccc(C(=O)N[C@@H]4C(=O)N[C@H](C(C)C)C(=O)N5CCC[C@H]5C(=O)N(C)CC(=O)N(C)[C@@H](C(C)C)C(=O)O[C@@H]4C)c3nc-2c(C(=O)N[C@@H]2C(=O)N[C@H](C(C)C)C(=O)N3CCC[C@H]3C(=O)N(C)CC(=O)N(C)[C@@H](C(C)C)C(=O)O[C@@H]2C)c(N)c1=O (I: T[dV]P[Sar][NMeV] / II: T[dV]P[Sar][NMeV]; ester I:1-I:C, II:1-II:C; linker I:N-II:N via Actinocin(9to1)) | 0.001 µM

SMILES | IC50
O=c1[nH]sc2cc(Cl)ccc12 | > 10 µM (inactive)
CCCCC(CC)COC(=O)CC(C(=O)OCC(CC)CCCC)S(=O)(=O)O (stereo unspecified) | > 10 µM (inactive)
CC12CCC(CC1)C(C)(C)O2 | > 10 µM (inactive)
CCCCCCOC(=O)c1cccnc1 | > 10 µM (inactive)
COC(=O)Nc1nc2ccc(C(=O)C3CC3)cc2[nH]1 | 1.19 µM
CCC=CCC=CCC=CCCCCCCCC(=O)O | > 10 µM (inactive)
O=C(CCBr)N1CCN(C(=O)CCBr)CC1 | 1.37 µM
C=C(C)[C@H]1Cc2c(ccc3c2O[C@@H]2COc4cc(OC)c(OC)cc4[C@@H]2C3=O)O1 | 0.0257 µM
O=C(O)c1ccc(-n2nc(-c3ccccc3O)nc2-c2ccccc2O)cc1 | 2.09 µM
COc1cccc(CCc2ccccc2OCC(CN(C)C)OC(=O)CCC(=O)O)c1 (stereo unspecified) | > 10 µM (inactive)
Cc1ccc(Nc2c(F)cccc2Cl)c(CC(=O)O)c1 | > 10 µM (inactive)
CC[N+](CC)(CC)CCOc1ccc(/C=C/c2ccccc2)cc1 | > 10 µM (inactive)
CCCCC(=O)O[C@H]1CC[C@H]2[C@@H]3CCc4cc(O)ccc4[C@@H]3CC[C@]12C | > 10 µM (inactive)
CC(C)(C)C1CCC(CC2=C(O)c3ccccc3C(=O)C2=O)CC1 (stereo unspecified) | 1.96 µM
C[C@@H]1C[C@@H]([C@H](O)CC2CC(=O)NC(=O)C2)C(=O)[C@@H](C)C1 | 1.15 µM
CSc1ccc2c(c1)N(CCC1CCCCN1C)c1ccccc1S2 (stereo unspecified) | > 10 µM (inactive)
CN1CCN(c2cc3c(nn2)Oc2ccccc2N3C)CC1 | > 10 µM (inactive)
CS(=O)(=O)CCNCc1ccc(-c2ccc3ncnc(Nc4ccc(OCc5cccc(F)c5)c(Cl)c4)c3c2)o1 | > 10 µM (inactive)
CCCCCCCCCCC[C@@H](C[C@@H]1OC(=O)[C@H]1CCCCCC)OC(=O)[C@H](CC(C)C)NC=O | > 10 µM (inactive)
Cc1nc(Nc2ncc(C(=O)Nc3c(C)cccc3Cl)s2)cc(N2CCN(CCO)CC2)n1 | > 10 µM (inactive)
CCCOC(=O)c1cc(O)c(O)c(O)c1 | > 10 µM (inactive)
Clc1ccc(C(Cn2ccnc2)OCc2ccc(Sc3ccccc3)cc2)c(Cl)c1 (stereo unspecified) | > 10 µM (inactive)
Clc1cc(Cl)c(OCC#CI)cc1Cl | > 10 µM (inactive)

SMILES | IC50
Clc1ccc(CCC(Cn2ccnc2)Sc2c(Cl)cccc2Cl)cc1 (stereo unspecified) | 3.53 µM
O=[N+]([O-])c1ccc(Oc2ccc(N=C=S)cc2)cc1 | 3.72 µM
Cc1c(C)c2c(c(C)c1O)CCC(C)(COc1ccc(CC3SC(=O)NC3=O)cc1)O2 (stereo unspecified) | 5.14 µM (inactive)
C#C[C@]1(O)CC[C@H]2[C@@H]3CCc4cc(O)ccc4[C@H]3CC[C@@]21C | > 10 µM (inactive)
CCCCCCCCCCCCCC[N+](C)(C)Cc1ccccc1 | 3.01 µM
C/C(=N\O)[C@@H](C)NCC(C)(C)CN[C@H](C)/C(C)=N/O | > 10 µM (inactive)
O=[N+]([O-])c1cc(I)c(O)c(I)c1 | > 10 µM (inactive)
Cc1cccc(C)c1NC(=O)CC12CCCN1CCC2 | > 10 µM (inactive)
CC[C@]1(O)C[C@@H]2CN(CCc3c([nH]c4ccccc34)[C@@](C(=O)OC)(c3cc4c(cc3OC)N(C)[C@H]3[C@@](O)(C(=O)OC)[C@H](OC(C)=O)[C@]5(CC)C=CCN6CC[C@]43[C@@H]65)C2)C1 | 0.0026 µM and 0.0023 µM
CCCCCCCC/C=C\CCCCCCCCN | > 10 µM (inactive)
Cc1c(C)c2c(c(C)c1O)CC[C@@](C)(CCC[C@H](C)CCC[C@H](C)CCCC(C)C)O2 | > 10 µM (inactive)
CN(Cc1cnc2nc(N)nc(N)c2n1)c1ccc(C(=O)N[C@@H](CCC(=O)O)C(=O)O)cc1 | > 10 µM (inactive)
CC(=O)Oc1ccccc1C(=O)Nc1ncc([N+](=O)[O-])s1 | 2.06 µM
CCOC(=O)C1=C(C)NC(C)=C(C(=O)OCC)C1c1ccccc1/C=C/C(=O)OC(C)(C)C | > 10 µM (inactive)
CCCCCCCCCCCC[N+](C)(C)Cc1ccccc1 | > 10 µM (inactive)
CC[C@]1(O)CC[C@H]2[C@@H]3CCC4=CCCC[C@@H]4[C@H]3CC[C@@]21C | 6.25 µM (inactive)
CCCCCCCCCCCCCCCCCCNC(=O)OC1CCN(C(=O)OC[C@H](COC(=O)N(Cc2cccc[n+]2CC)C(=O)c2ccccc2OC)OC)CC1 | 1.5 µM
CN(C)c1ccc(C(=C2C=CC(=[N+](C)C)C=C2)c2ccccc2)cc1 | 0.0605 µM
Cc1c(C(=O)NN2CCCCC2)nn(-c2ccc(Cl)cc2Cl)c1-c1ccc(Cl)cc1 | > 10 µM (inactive)
CNC(=O)Oc1cccc2ccccc12 | > 10 µM (inactive)
C[C@]12CC[C@@H]3c4ccc(O)cc4CC[C@H]3[C@@H]1CC[C@@H]2OC(=O)CCC1CCCC1 | 6.37 µM (inactive)
O=c1[nH]c(=O)n([C@H]2C[C@H](O)[C@@H](CO)O2)cc1I | 0.681 µM
C=CCN1CC[C@]23CCCC[C@H]2[C@H]1Cc1ccc(O)cc13 | > 10 µM (inactive)

SMILES | IC50
COc1ccc(-c2nc3ccc(C4=NNC(=O)CC4C)cc3[nH]2)cc1 (stereo unspecified) | 2.89 µM
C[C@@H]1C[C@H]2[C@@H]3CCC4=CC(=O)C=C[C@]4(C)[C@@]3(Cl)[C@@H](O)C[C@]2(C)[C@@]1(OC(=O)c1ccco1)C(=O)CCl | 4.99 µM
Oc1ccc(/C=C/c2cc(O)cc(O)c2)cc1 | > 10 µM (inactive)
Oc1ccc(Cl)cc1Cc1cc(Cl)ccc1O | 2.32 µM
CN(C)/N=N/c1nc[nH]c1C(N)=O | 4.59 µM
Cc1cc(N)c2ccccc2[n+]1CCCCCCCCCC[n+]1c(C)cc(N)c2ccccc21 | > 10 µM (inactive)
COC(=O)C1=C(C)NC(C)=C(C(=O)O[C@@H]2CCCN(Cc3ccccc3)C2)[C@@H]1c1cccc([N+](=O)[O-])c1 | > 10 µM (inactive)
CC(C)(C)CC(C)(C)c1ccc(O)cc1 | > 10 µM (inactive)
O=C1C(I)=CC(=C(c2cc(I)c(O)c(I)c2)c2ccccc2C(=O)O)C=C1I | > 10 µM (inactive)
C/C=C(/C(=C/C)c1ccc(OC(C)=O)cc1)c1ccc(OC(C)=O)cc1 | > 10 µM (inactive)
Cc1c(C)c2c(c(C)c1OC(=O)CCC(=O)O)CC[C@@](C)(CCC[C@H](C)CCC[C@H](C)CCCC(C)C)O2 | > 10 µM (inactive)
CC[C@@H]([C@H](C)O)n1ncn(-c2ccc(N3CCN(c4ccc(OC[C@@H]5CO[C@@](Cn6cncn6)(c6ccc(F)cc6F)C5)cc4)CC3)cc2)c1=O | 6.46 µM (inactive)
CCCCC1C(=O)N(c2ccccc2)N(c2ccc(O)cc2)C1=O (stereo unspecified) | 3.29 µM
CC(C)(C)c1ccc(C(O)CCCN2CCC(C(O)(c3ccccc3)c3ccccc3)CC2)cc1 (stereo unspecified) | 3.25 µM
O=C(O)CCCc1ccc(N(CCCl)CCCl)cc1 | 1.24 µM
Cc1cc(O)c2c(O)c3c(O)cccc3cc2c1 | > 10 µM (inactive)
Cc1[nH]cnc1C[C@H]1CCc2c(C)c3ccccc3n2C1=O | > 10 µM (inactive)
NC(=O)C1(N2CCCCC2)CCN(CCCN2c3ccccc3CCc3ccc(Cl)cc32)CC1 | 3.4 µM
O=C1CC[C@H](C(=O)N2CCCCC2)N1 | > 10 µM (inactive)
N/C(=N\N=C\c1ccc(Cl)cc1)N/N=C/c1ccc(Cl)cc1 | > 10 µM (inactive)
Cc1onc(-c2c(Cl)cccc2Cl)c1C(=O)Cl | > 10 µM (inactive)
COc1cc2nc(N3CCN(C(=O)C4COc5ccccc5O4)CC3)nc(N)c2cc1OC (stereo unspecified) | > 10 µM (inactive)
